Experimental data from PubChem BioAssay (NCI).
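How tested: cells in 96-well plates exposed to compound for 48 hours at five concentrations. TGI marks complete inhibition of growth.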

How the values were obtained:
Experiment in all cases: inhibition of tumour cell growth, NCI panel, 48 h
M19-MEL melanoma = tested on: M19-MEL melanoma
SW-620 colon = tested on: SW-620 colon
HCT-15 colon = tested on: HCT-15 colon
DMS 273 small cell lung = tested on: DMS 273 small cell lung
HOP-18 NSCLC = tested on: HOP-18 NSCLC
SK-OV-3 ovarian = tested on: SK-OV-3 ovarian
COLO 205 colon = tested on: COLO 205 colon
SF-295 CNS = tested on: SF-295 CNS
OVCAR-4 ovarian = tested on: OVCAR-4 ovarian
DLD-1 colon = tested on: DLD-1 colon
NCI-H23 lung = tested on: NCI-H23 lung
UO-31 renal = tested on: UO-31 renal
SF-539 CNS = tested on: SF-539 CNS
DMS 114 small cell lung = tested on: DMS 114 small cell lung
U251 CNS = tested on: U251 CNS
OVCAR-8 ovarian = tested on: OVCAR-8 ovarian
HL-60(TB) leukemia = tested on: HL-60(TB) leukemia
SK-MEL-5 melanoma = tested on: SK-MEL-5 melanoma
MOLT-4 leukemia = tested on: MOLT-4 leukemia
KM12 colon = tested on: KM12 colon
CCRF-CEM leukemia = tested on: CCRF-CEM leukemia
NCI-H522 lung = tested on: NCI-H522 lung
TK-10 renal = tested on: TK-10 renal
HT29 colon = tested on: HT29 colon
SNB-78 CNS = tested on: SNB-78 CNS
SK-MEL-28 melanoma = tested on: SK-MEL-28 melanoma
SNB-75 CNS = tested on: SNB-75 CNS
IGROV1 ovarian = tested on: IGROV1 ovarian
LXFL 529 NSCLC = tested on: LXFL 529 NSCLC
NCI-H460 lung = tested on: NCI-H460 lung
786-0 renal = tested on: 786-0 renal
SR leukemia = tested on: SR leukemia
CAKI-1 renal = tested on: CAKI-1 renal
K-562 leukemia = tested on: K-562 leukemia
SF-268 CNS = tested on: SF-268 CNS
HCT-116 colon = tested on: HCT-116 colon
HOP-62 NSCLC = tested on: HOP-62 NSCLC
SN12C renal = tested on: SN12C renal
SNB-19 CNS = tested on: SNB-19 CNS
NCI-H226 lung = tested on: NCI-H226 lung
OVCAR-5 ovarian = tested on: OVCAR-5 ovarian
A549 NSCLC = tested on: A549 NSCLC
KM20L2 colon = tested on: KM20L2 colon
EKVX NSCLC = tested on: EKVX NSCLC
HOP-92 NSCLC = tested on: HOP-92 NSCLC
UACC-257 melanoma = tested on: UACC-257 melanoma
UACC-62 melanoma = tested on: UACC-62 melanoma
HCC-2998 colon = tested on: HCC-2998 colon
ACHN renal = tested on: ACHN renal
OVCAR-3 ovarian = tested on: OVCAR-3 ovarian
M14 melanoma = tested on: M14 melanoma
MALME-3M melanoma = tested on: MALME-3M melanoma
A498 renal = tested on: A498 renal
RPMI-8226 leukemia = tested on: RPMI-8226 leukemia
LOX IMVI melanoma = tested on: LOX IMVI melanoma
RXF 393 renal = tested on: RXF 393 renal
SK-MEL-2 melanoma = tested on: SK-MEL-2 melanoma

C=C1CC(c2ccc(O)c(OC)c2)Oc2c(OC)cccc21 (centres undefined) was tested, and the TGI (M19-MEL melanoma) was > 100 µM, the TGI (SW-620 colon) was > 100 µM and the TGI (HCT-15 colon) was > 100 µM. The TGI (DMS 273 small cell lung) was 55.2 µM, the TGI (HOP-18 NSCLC) was > 100 µM and the TGI (SK-OV-3 ovarian) was > 100 µM. The TGI (COLO 205 colon) was > 100 µM, the TGI (SF-295 CNS) was > 100 µM and the TGI (OVCAR-4 ovarian) was > 100 µM. For the same compound, the TGI (DLD-1 colon) was > 100 µM, the TGI (NCI-H23 lung) was > 100 µM and the TGI (UO-31 renal) was > 100 µM. The TGI (SF-539 CNS) was 52.2 µM, the TGI (DMS 114 small cell lung) was 56.1 µM and the TGI (U251 CNS) was > 100 µM. The TGI (OVCAR-8 ovarian) was > 100 µM, the TGI (HL-60(TB) leukemia) was 49.9 µM and the TGI (SK-MEL-5 melanoma) was > 100 µM. The TGI (MOLT-4 leukemia) was > 100 µM, the TGI (KM12 colon) was > 100 µM and the TGI (CCRF-CEM leukemia) was 93.7 µM. For the same compound, the TGI (NCI-H522 lung) was 49.5 µM, the TGI (TK-10 renal) was > 100 µM and the TGI (HT29 colon) was > 100 µM. The TGI (SNB-78 CNS) was > 100 µM, the TGI (SK-MEL-28 melanoma) was > 100 µM and the TGI (SNB-75 CNS) was > 100 µM. The TGI (IGROV1 ovarian) was > 100 µM, the TGI (LXFL 529 NSCLC) was > 100 µM and the TGI (NCI-H460 lung) was > 100 µM. The TGI (786-0 renal) was > 100 µM, the TGI (SR leukemia) was 61.3 µM and the TGI (CAKI-1 renal) was > 100 µM. For the same compound, the TGI (K-562 leukemia) was 64.8 µM, the TGI (SF-268 CNS) was > 100 µM and the TGI (HCT-116 colon) was > 100 µM. The TGI (HOP-62 NSCLC) was > 100 µM, the TGI (SN12C renal) was > 100 µM and the TGI (SNB-19 CNS) was > 100 µM. For the same compound, the TGI (NCI-H226 lung) was > 100 µM, the TGI (OVCAR-5 ovarian) was > 100 µM and the TGI (A549 NSCLC) was > 100 µM. The TGI (KM20L2 colon) was > 100 µM, the TGI (EKVX NSCLC) was > 100 µM and the TGI (HOP-92 NSCLC) was 53.1 µM. For the same compound, the TGI (UACC-257 melanoma) was > 100 µM, the TGI (UACC-62 melanoma) was > 100 µM and the TGI (HCC-2998 colon) was > 100 µM. The TGI (ACHN renal) was > 100 µM, the TGI (OVCAR-3 ovarian) was > 100 µM and the TGI (M14 melanoma) was > 100 µM.
With CCOC(=O)[C@@]12C(C)=CC(=O)O[C@]1(C)C[C@H]2C#N the TGI (M19-MEL melanoma) was > 100 µM, the TGI (SW-620 colon) was > 100 µM and the TGI (HCT-15 colon) was > 100 µM. For the same compound, the TGI (DMS 273 small cell lung) was > 100 µM, the TGI (HOP-18 NSCLC) was > 100 µM and the TGI (SK-OV-3 ovarian) was > 100 µM. For the same compound, the TGI (COLO 205 colon) was > 100 µM, the TGI (MALME-3M melanoma) was > 100 µM and the TGI (SF-295 CNS) was > 100 µM. For the same compound, the TGI (OVCAR-4 ovarian) was > 100 µM, the TGI (DLD-1 colon) was > 100 µM and the TGI (NCI-H23 lung) was > 100 µM. The TGI (UO-31 renal) was > 100 µM, the TGI (SF-539 CNS) was > 100 µM and the TGI (DMS 114 small cell lung) was > 100 µM. For the same compound, the TGI (U251 CNS) was > 100 µM, the TGI (OVCAR-8 ovarian) was > 100 µM and the TGI (HL-60(TB) leukemia) was > 100 µM. For the same compound, the TGI (SK-MEL-5 melanoma) was > 100 µM, the TGI (A498 renal) was > 100 µM and the TGI (MOLT-4 leukemia) was > 100 µM. For the same compound, the TGI (KM12 colon) was > 100 µM, the TGI (CCRF-CEM leukemia) was > 100 µM and the TGI (RPMI-8226 leukemia) was > 100 µM. The TGI (TK-10 renal) was > 100 µM, the TGI (HT29 colon) was > 100 µM and the TGI (SNB-78 CNS) was > 100 µM. For the same compound, the TGI (SK-MEL-28 melanoma) was > 100 µM, the TGI (SNB-75 CNS) was > 100 µM and the TGI (IGROV1 ovarian) was > 100 µM. For the same compound, the TGI (LXFL 529 NSCLC) was > 100 µM, the TGI (NCI-H460 lung) was > 100 µM and the TGI (786-0 renal) was > 100 µM. The TGI (K-562 leukemia) was > 100 µM, the TGI (LOX IMVI melanoma) was > 100 µM and the TGI (SF-268 CNS) was > 100 µM. For the same compound, the TGI (HCT-116 colon) was > 100 µM, the TGI (HOP-62 NSCLC) was > 100 µM and the TGI (SN12C renal) was > 100 µM. The TGI (SNB-19 CNS) was > 100 µM, the TGI (NCI-H226 lung) was > 100 µM and the TGI (A549 NSCLC) was > 100 µM. For the same compound, the TGI (KM20L2 colon) was > 100 µM, the TGI (RXF 393 renal) was > 100 µM and the TGI (EKVX NSCLC) was > 100 µM. For the same compound, the TGI (HOP-92 NSCLC) was > 100 µM, the TGI (UACC-257 melanoma) was > 100 µM and the TGI (UACC-62 melanoma) was > 100 µM. For the same compound, the TGI (HCC-2998 colon) was > 100 µM, the TGI (ACHN renal) was > 100 µM and the TGI (OVCAR-3 ovarian) was > 100 µM. For the same compound, the TGI (SK-MEL-2 melanoma) was > 100 µM and the TGI (M14 melanoma) was > 100 µM.
